BindingDB's records for doi:10.1021/acschembio.6b00357 (Uppsala University, 2016)

Legend:
Assay in all cases: Radioligand Binding Assay
Adenosine receptor A2a = Adenosine receptor A2a (Homo sapiens, UniProt P29274)
Procedure: (§1) Nonspecific binding was determined using adenosine-′-Nethyluronamideat 10 μM concentration.

Adenosine receptor A3 = target: T1, Adenosine receptor A3 (Homo sapiens, UniProt P0DMS8)
T1 sequence (P0DMS8 whole entry): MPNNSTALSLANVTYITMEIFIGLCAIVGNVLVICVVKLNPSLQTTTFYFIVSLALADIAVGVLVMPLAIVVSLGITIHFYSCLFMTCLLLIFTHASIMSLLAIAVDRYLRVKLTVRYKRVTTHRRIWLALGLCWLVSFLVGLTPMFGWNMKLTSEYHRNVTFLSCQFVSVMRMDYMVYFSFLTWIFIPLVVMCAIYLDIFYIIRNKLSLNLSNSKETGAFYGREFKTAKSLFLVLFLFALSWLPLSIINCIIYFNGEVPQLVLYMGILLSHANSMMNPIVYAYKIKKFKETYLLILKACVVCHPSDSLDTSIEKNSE
Procedure: as §1

Adenosine receptor A1 = target: T2, Adenosine receptor A1 (Homo sapiens, UniProt P30542)
T2 sequence (P30542 whole entry): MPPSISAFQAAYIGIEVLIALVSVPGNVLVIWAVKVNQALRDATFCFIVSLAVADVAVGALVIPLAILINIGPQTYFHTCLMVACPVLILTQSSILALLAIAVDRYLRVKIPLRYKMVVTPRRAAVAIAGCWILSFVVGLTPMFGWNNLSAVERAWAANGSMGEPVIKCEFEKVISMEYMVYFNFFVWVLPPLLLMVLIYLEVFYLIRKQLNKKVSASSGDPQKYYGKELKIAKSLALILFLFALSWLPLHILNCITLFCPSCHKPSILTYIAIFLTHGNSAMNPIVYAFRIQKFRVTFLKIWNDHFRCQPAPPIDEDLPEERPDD
Procedure: as §1

Adenosine receptor A2a, sequence (P29274 whole entry): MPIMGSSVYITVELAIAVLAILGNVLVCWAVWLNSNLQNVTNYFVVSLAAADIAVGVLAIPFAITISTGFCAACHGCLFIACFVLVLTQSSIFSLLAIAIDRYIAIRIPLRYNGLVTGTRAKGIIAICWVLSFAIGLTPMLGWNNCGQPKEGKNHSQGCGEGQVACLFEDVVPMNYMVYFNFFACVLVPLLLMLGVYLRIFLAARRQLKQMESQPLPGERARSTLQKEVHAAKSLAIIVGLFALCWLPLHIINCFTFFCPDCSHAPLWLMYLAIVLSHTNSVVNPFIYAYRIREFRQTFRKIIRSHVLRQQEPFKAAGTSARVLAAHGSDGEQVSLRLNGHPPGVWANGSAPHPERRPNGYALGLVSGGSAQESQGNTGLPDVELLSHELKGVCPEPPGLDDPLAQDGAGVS

Compound	Ki (Adenosine receptor A2a) [nM]	Ki (Adenosine receptor A3) [nM]	Ki (Adenosine receptor A1) [nM]
Nc1ccnc2c1ncn2[C@@H]1O[C@H](CO)[C@@H](O)[C@H]1O [1-DEAZA-ADENOSINE]	645	583	84
Nc1cccc2c1ncn2[C@@H]1O[C@H](CO)[C@@H](O)[C@H]1O [Adenosine receptor agonist, 7]	–	823	–
Nc1nc(=O)[nH]c2c1ncn2[C@@H]1O[C@H](CO)[C@@H](O)[C@H]1O [Adenosine receptor agonist, 9]	495	348	467
Cc1cn([C@@H]2O[C@H](CO)[C@@H](O)[C@H]2O)c(=O)nc1N [Adenosine receptor agonist, 13]	–	8020	–
Nc1ncn([C@@H]2O[C@H](CO)[C@@H](O)[C@H]2O)c(=O)c1Cl [Adenosine receptor agonist, 14]	–	557	359
Nc1nccc2c1ncn2[C@@H]1O[C@H](CO)[C@@H](O)[C@H]1O [CAS_6736-58-9]	–	–	461
